According to patent publication US10105362B2, “Anti-tumor use of anagrelide and derivatives thereof” (SHANGHAI INSTITUTE OF MATERIA MEDICA, CHINESE ACADEMY OF …, priority 2013, dated 2018):
“Also recorded” adds a separate entry of the source.

Tests used:
phosphodiesterase (PDE) = details: subsequent studies; cited from earlier work
SW1116 cells = assay: MTT colorimetry, tumor cell growth/viability; assay type: cell-based, human; details: 1 μM, 72 hours
Description: (§1) Logarithmic growth phase cells were seeded in 96-well culture plate in appropriate density (100 μl in each well). After overnight cultivation, different concentrations of drugs were added and treated for 72 h, while three wells were set for each concentration. After treatment was completed, 20 μl/well of MTT (5 mg/ml in PBS) was added to each well and affected for 3-5 hours, the medium was suctioned out completely and 100 ul/well of DMSO was added, oscillated on decolorization shaker in dark place for 10 minutes until the Blue purple crystals formazan (formazan) was completely dissolved, the OD (Optical Density) value was detected with a microplate reader (detection wavelength: […]; reference wavelength: 650 nM). In blank group, culture medium only added without cells, and in control group, DMSO in the same volume as that for drug was added. Cell viability was calculated=(OD value of experimental group−OD value of control group)/(OD value of control group−OD value of blank group). Tumor cells from different tissue source were selected, and the concentration of Anagrelide was 1 μM and 50 μM, OD value was MTT detected after administrated for 72 hours, and the cell viability was calculated using cell viability=(administered group OD-blank group OD)/(control group OD-blank group OD)*100%, and was mapped by using GraphPadPrism 4 software. IC50 values on this seven cell lines of Anagrelide were detect by MTT method, and all of them are less than 100 nM (Table 2).

A498 cells = assay: MTT colorimetry, tumor cell growth/viability; assay type: cell-based, human; details: for IC50: A498, MTT, 72 h
Description: as §1

SMMC7721 cells = assay: MTT colorimetry, tumor cell growth/viability; assay type: cell-based, human; details: 1 μM, 72 hours
Description: as §1

H4 cells = assay: MTT colorimetry, tumor cell growth/viability; assay type: cell-based, human; details: 1 μM, 72 hours
Description: as §1

HeLa cells [1] = assay: MTT colorimetry, tumor cell growth/viability; assay type: cell-based, human; details: 1 μM, 72 hours
Description: as §1

FHCC98 cells = assay: MTT colorimetry, tumor cell growth/viability; assay type: cell-based, human; details: 1 μM, 72 hours
Description: as §1

Bel7404 cells = assay: MTT colorimetry, tumor cell growth/viability; assay type: cell-based, human; details: 1 μM, 72 hours
Description: as §1

[2] = system: human H4 transplantation tumor; assay: Human H4 transplantation tumor in nude mice, tumor growth; assay type: in vivo, BALB/c naked mouse; details: for anti-tumor effect (tumor volume, tumor growth): 21 days, vs vehicle control; for tumor weight: end of the experiment (day 21)
Description: (§2) Under aseptic conditions, tumor cells in the proliferation stage were taken. The cell concentration was adjusted after digestion, seeded at right armpit of nude mice, and the inoculated volume was 0.1 mL. Tumor diameter was measured with vernier caliper, after the tumor was grown to 200-300 mm^3, the tumor-bearing mice were selected, and randomly divided into 3 groups (n=4) according to the size of the tumors: negative control group, Anagrelide I (10 mg/kg), Anagrelide II (30 mg/kg). Each group was intragastric administrated, the day of administration was recorded as d1, the negative control group was given same amount of vehicle, and then the long and short diameters of tumor were measured twice a week, while the body weights of mice were weighed. At the 21th day of the administration, the animals were sacrificed and the tumor was dissected and weighed. Before the animals were sacrificed, eyeball was taken for blood sample, the number of white blood cell (WBC), red blood cell (RBC), concentration of hemoglobin (Hb) and number of platelet (PLT) were measured.

HeLa cells [3] = assay: Cell migration detection via scratch experiment; assay type: cell-based, human; details: 100 nM, serum-free medium, up to 24 hours
Description: The bottom of the six-well plate was uniformly marked with horizontal strips by marker, and then the logarithmic growth phase cells were seeded in the plate by 120×10^4 /mL concentration to make the cells evenly cover the six-well plate, and cells were incubated under 37° C. overnight. Fresh serum-free medium was changed, after the cells were starved for 10 hours, the bottom of six-well plate was scratched perpendicularly to horizontal strips, and washed three times with serum-free medium. After the suspended cells were rinsed, serum-free medium was added and photographed in 0, 2, 6, 12, and 24 hours. Image J was used to calculate the moving distance of the cells. By Scratching assay (HeLa cells were used as an example), the effect of Anagrelide on tumor cell migration was detected.

tumor cells = assay: Growth inhibition of tumor cells (summary statement); assay type: cell-based; details: 10 nM/L
[4] = system: PARP cleavage in H4 cells; assay: PARP cleavage by Western Blotting (apoptosis); assay type: cell-based, human; details: 100 nM, different time points
Excerpt: (§3) 1) Vertical electrophoretic separation of proteins: 8%-10% SDS-polyacrylamide (SDA-PAGE) gel electrophoresis separation, 5% stacking gel. The voltage for stacking gel was 80V, separation gel separation voltage for separating gel was 120V, and electrophoresis was stopped when bromophenol blue indicator ran to the bottom; 2) membrane transferring: semi-dry transferring: transmembrane voltage was 10-15V, and the time was adjusted according to the size of the protein; 3) pre-stained with Ponceau to observe transmembrane effect; 4) blocking: It was blocked with 5% skim milk in TBST and oscillated on Decolorization shaker at room temperature for 1 hour; 5) the binding with first antibody: The antibody was diluted at 1: 2000 to 1: 10000 in TBST containing 5% BSA, oscillated on decolorization shaker 1 hour under room temperature for binding, and placed at 4° C. overnight. TBST was used to wash for three times, and 10 minutes for each time. 6) the binding with secondary antibody: The antibody was diluted at 1:5000 to 1:10000 in TBST containing 5% BSA, and oscillated on decolorization shaker 1 hour for binding under room temperature. TBST was used to wash for three times, and 10 minutes for each time. ECL developing kit was used to treat substrate for 2-3 minutes, detected for chemiluminescence, and exposed on X-ray film. […] The PARP cleavage was detected by Western Blotting.

[5] = system: PARP cleavage in FHCC 98 cells; assay: PARP cleavage by Western Blotting (apoptosis); assay type: cell-based, human; details: 100 nM, different time points
Excerpt: as §3

[6] = Blood routine test of tumor-bearing nude mice (WBC, RBC, Hb, PLT); assay type: in vivo, BALB/c naked mouse; details: day 21, vs vehicle control
Description: as §2

non-sensitive cell lines = assay: Growth inhibition of non-sensitive cell lines (summary statement); assay type: cell-based; details: concentration raised up to 1 mM/L

IC50 (A498 cells): 53 nM | IC50 (A498 cells; Homo sapiens, A498, 72 h): < 100 nM | blood routine test index (WBC, RBC, Hb, PLT) ([6]; 10 mg/kg intragastric): didn't show any significant decrease | blood routine test index (WBC, RBC, Hb, PLT) ([6]; 30 mg/kg intragastric): didn't show any significant decrease
Structure (SMILES): O=C1CN2Cc3c(ccc(Cl)c3Cl)N=C2N1 [Anagrelide, 6,7-dichloro-1,5-dihydro-imidazo [2,1-b] quinazolin-2 (3H)-one]
phosphodiesterase (PDE) activity (phosphodiesterase (PDE)): capable of inhibiting phosphodiesterase (PDE) activity | inhibition of cell growth (SW1116 cells): significantly inhibited growth | inhibition of cell growth (A498 cells; 1 μM, 72 hours, MTT, A498): significantly inhibited growth | inhibition of cell growth (SMMC7721 cells): significantly inhibited growth | inhibition of cell growth (H4 cells): significantly inhibited growth | inhibition of cell growth (HeLa cells [1]): significantly inhibited growth | inhibition of cell growth (FHCC98 cells): significantly inhibited growth | inhibition of cell growth (Bel7404 cells): significantly inhibited growth | anti-tumor effect (tumor volume, tumor growth) ([2]; 10 mg/kg intragastric): significant anti-tumor effect | tumor weight ([2]; 10 mg/kg intragastric): significantly lower than that of the vehicle control group | anti-tumor effect (tumor volume, tumor growth) ([2]; 30 mg/kg intragastric): significant anti-tumor effect | tumor weight ([2]; 30 mg/kg intragastric): significantly lower than that of the vehicle control group; also recorded: less than that of Anagrelide I (10 mg/kg) group | healing speed of scratch (cell migration) (HeLa cells [3]): significantly inhibit the healing speed of scratch | growth inhibition of tumor cells (tumor cells): obviously inhibit the growth of tumor cells | PARP cleavage [4]: PARP cleavage was gradually increased with time | PARP cleavage [5]: PARP cleavage was gradually increased with time | growth inhibition of non-sensitive cell lines (non-sensitive cell lines): does not have any growth inhibition effect
